Reference: patent publication US20030119814A1, “Novel prodrugs of N-H bond-containing compounds and methods of making thereof” (The University of Kansas, priority 2001, published 2003)

Experiments:
[1] = rabbits; due to high thiols in the blood; cited from earlier work
physchem = conditions: soybean oil, oil or lipid
[2] = Reversion of prodrug to parent on addition of 10 times molar excess of cysteine; format: physicochemical
Procedure: (§1) 1HNMR (300 MHz, DMSO-d6): □ 3.05 (d of d, 1H), 3.25 (d of d, 1H), 3.80 (broad), 4.15 (broad, 1H), 7.45 (t, 2H), 7.55 (t, 1H), 7.80 (d, 2H), 8.40 (broad), 9.60 (s, 1H). FAB+ 241.0 (M+1). […] When a 10 times molar excess of cysteine was added to the above solution, the model prodrug degraded (reverted to yield benzamide) with a half life of ˜20 to 30 minutes. In addition, the above benzamide-cysteine model prodrug had improved aqueous solubility compared to benzamide.
(§2) 1HNMR (300 MHz, CDCl3): □ 1.15 (t, 3H), 3.10 (d of d, 11H), 3.70 (d of d, 11H), 3.95 (m, 2H), 4.70 (m, 1H), 5.05 (d of d, 2H), 6.25 (d, 1H), 7.35 (broad s, 5H), 7.75 (m, 2H), 7.90 (m, 2H). […] When a 10 times molar excess of cysteine was added to the above solution, the model prodrug degraded (reverted to yield phthalimide) instantaneously (kinetics were not measurable).

[3] = Aqueous stability in buffer at 25 degrees Celsius; format: physicochemical; conditions: for aqueous degradation kinetics: buffered aqueous solution, Ionic Strength 0.15M; for half-life: 35 mM Acetate Buffer, Ionic Strength 0.15M (NaCl)
Procedure: as §1, §2
(§3) ^1HNMR (300 MHz, DMSO-d6): □ 1.15 (t, 3H), 2.85 (d of d, 1H), 3.05 (d of d, 1H), 4.05 (m, 1H), 4.15 (q, 2H), 6.95 (s, 2H), 7.10 (s, 1H), 7.35 (m, 2H), 7.40 (broad s, 6H), 8.40 (broad). FAB+ 384.1 (M+1).

[4] = Aqueous solubility compared to parent compound; format: physicochemical
Procedure: as §1, §3

[5] = within a pH range of 4.0 to 7.0, 25 degrees Celsius, projected by Eyring Plot

Compound	solubility (physchem) [mg/mL]	aqueous degradation kinetics [3]	pH of maximum stability [3, 5]	aqueous solubility compared to parent compound [4]	further results
O=C1C2CC=CCC2C(=O)N1SC(Cl)(Cl)Cl (stereo not shown) [Captan, N-trichloromethylthio-4-cyclohexane 1,2-dicarboximide]					fate of active form in the body [1]: broken down in the body
CCOC(=O)CCSN(CC1CN(c2ccc(N3CCOCC3)c(F)c2)C(=O)O1)C(C)=O (stereo not shown) [Example 10]	> 30				
CC(=O)N(CC1CN(c2ccc(N3CCOCC3)c(F)c2)C(=O)O1)Sc1ccccc1 (stereo not shown) [Example 11]	> 10				melting point: 120.9 °C
NC(CSNC(=O)c1ccccc1)C(=O)O (stereo not shown) [Example 13]		Pseudo-first order degradation kinetics were observed	6.0	improved	half-life ([2]; phosphate buffer with 10 times molar excess of cysteine, 10 times molar excess of cysteine added to the phosphate buffer solution): 0.333 to 0.5 h
CCOC(=O)C(CSN1C(=O)c2ccccc2C1=O)NC(=O)OCc1ccccc1 (stereo not shown) [Example 15]		did not show pseudo-first order kinetics			degradation (reversion to parent) with cysteine ([2]; 10 times molar excess of cysteine added to the acetate buffer solution, kinetics not measurable): instantaneously; half-life ([3]; pH 3.5, 25 degrees Celsius): 8 to 9 days; pH of maximum stability ([3]; within a pH range of 3.5 to 5.0, 25 degrees Celsius): 3.5
CCOC(=O)C(N)CSNC(=O)N1c2ccccc2C=Cc2ccccc21 (stereo not shown) [Example 16]		Pseudo-first order degradation kinetics were observed	4.0	greatly improved	half-life ([3]; pH 4.0, 25 degrees Celsius, projected by Eyring Plot): ~181 days
